Results published in patent publication US20090257987A1, “Method of generating dopamine-secreting cells” (Ramot At Tel Aviv University Ltd., priority 2008, published 2009).

B1: transforming growth factor β3 (protein, UniProt P10600 301-412, looked up)
Transforming growth factor …: ALDTNYCFRNLEENCCVRPLYIDFRQDLGWKWVHEPKGYYANFCSGPCPYLRSADTTHSTVLGLYNTLNPEASASPCCVPQDLEPLTILYYVGRTPKVEQLSNMVVKSCKCS
notes: transforming growth factor β3 (2 ng/ml) added to the Basic induction medium
B2: glial-derived neurotrophic factor (protein, UniProt P39905 78-211, looked up)
Glial cell line-derived …: SPDKQMAVLPRRERNRQAAAANPENSRGKGRRGQRGKNRGCVLTAIHLNVTDLGLGYETKEELIFRYCSGSCDAAETTYDKILKNLSRNRRLVSDKVGQACCRPIAFDDDLSFLDDNLVYHILRKHSAKRCGCI
notes: glial-derived neurotrophic factor (10 ng/ml) added to the Basic induction medium

tested on: human MSCs; experiment: Western blot analysis of TH protein expression after differentiation protocols; type: cell-based; details: result in words
Procedure: MSC isolation, culture, and characterization: Fresh bone marrow aspirates harvested from the iliac crests of adult donors (age 19-76) were diluted with Hanks' balanced salt solution. Mononuclear cells were isolated by centrifugation in Unisep-Maxi tubes (Novamed, Jerusalem, Israel) by density gradient. The cells were then plated in Dulbecco's Modified Eagle's Medium (DMEM) supplemented with 15% fetal bovine serum (FBS), 2 mM glutamine, 100 μg/ml streptomycin, 100 units/ml penicillin, 12.5 units/ml nystatin (Biological Industries, Beit HaEmek, Israel) in polystyrene plastic 75-cm^2 tissue-culture flasks. After 24 hours, nonadherent cells were removed. The medium was changed every 3-4 days. Adherent cells were cultured to 70%-90% confluence and reseeded at a density of 5,000-10,000 cells/cm^2. The cells were maintained at 37° C. in a humidified 5% CO2 incubator. The MSCs were characterized for their cell-surface phenotype and their mesenchymal differentiation capacity, as previously described (Blondheim er al., 2006, Stem Cells Dev 15:141-164).
(§1) Induction of differentiation: The differentiation protocol was composed of 2 steps. In step 1, cells were transferred to serum-free medium (DMEM) supplemented with 2 mM glutamine, 100 μg/ml streptomycin, 100 units/ml penicillin, 12.5 units/ml nystatin (Biological Industries), N2 supplement (Invitrogen, New Haven, Conn.) and 20 ng/ml fibroblast growth factor 2 and epidermal growth factor (both from R&D Systems, Minneapolis, Minn.) for 48-72 hours. In step 2, the medium was changed to Basic induction medium containing Neurobasal, B27 (both from Invitrogen), in addition to 1 mM dibutyryl cyclic AMP (dbcAMP), 3-isobutyl-1-methyl-xanthine (IBMX), and 200 μM ascorbic acid (all from Sigma, St Louis, Mo.). The following factors were added to the Basic induction medium in different combinations: brain-derived neurotrophic factor (BDNF; 50 ng/ml), glial-derived neurotrophic factor (GDNF;10 ng/ml), neurturin (100 ng/ml), neurotrophin 3 (NT3; 50 ng/ml), and fibroblast growth factor 8 (FGF8; 100 ng/ml (all from Cytolab, Rehovot, Israel); transforming growth factor β3 (TGFβ3; 2 ng/ml), sonic hedgehog (Shh; 500 ng/ml, both from R&D); estrogen (0.1 μM, Sigma); and all-trans-retinoic acid (RA; 0.1 μM, Sigma).
Western blot: Total protein was extracted by suspending the harvested cells in lysis buffer containing 10 mM Tris base (U.S. Biochemical Corporation, Cleveland, Ohio), 5 mM EDTA (Merck, Whitehouse Station, N.J.), 140 mM sodium chloride (NaCl; BioLab, Jerusalem, Israel), 10 mM sodium fluoride (NaF; Sigma), 0.5% NP 40 (U.S. Biochemical Corporation), and 1 μM phenylmethylsulfonyl fluoride (PMSF; Sigma). Following incubation on ice for 30 minutes, the mixture was centrifuged and the supernatants were collected. Protein content was determined by the BCA protein assay kit (Pierce, Rockford, Ill.). Twenty-five micrograms of protein from each sample were subjected to sodium dodecyl-sulfate (SDS)-polyacrylamide gel electrophoresis (PAGE) (12.5% acrylamide), followed by electrophoretic transfer to nitrocellulose membrane (Schleicher & Schuell, Dassel, Germany). Membranes were probed by mouse anti-TH (1:10,000, Sigma) and mouse anti β-actin (1:10,000, Chemicon, Billerica, Mass.) and then by goat anti-mouse horseradish peroxidase conjugated antibody (1:10,000) (Jackson, West Grove, Pa.) and rabbit anti-emerin (1:5,000, Santa Cruz Biotechnology, Santa Cruz, Calif.), followed by goat anti-rabbit horseradish peroxidase conjugated secondary antibody (1:10,000, Sigma). Adequate controls included HeLa cells (ATCC, Manassas, Va.) as negative control and neuroblastoma M17 cells (BE (2)-M17, ATCC) as positive control. Proteins of interest were detected using the enhanced Super Signal® chemiluminescent detection kit (Pierce).

| Molecule | TH protein expression level normalized to actin |
| --- | --- |
| COc1ccc(O)c(C(C)(C)C)c1 [BHA, butylated hydroxyanisole, reference compound] | did not facilitate upregulation |
| CC(=O)N[C@@H](CS)C(=O)O [NAC, N-acetylcysteine, reference compound] | did not facilitate upregulation |
| estrogen [+estrogen, reference compound] | directly affected the TH protein expression level |
| sonic hedgehog [+SHH] | directly affected the TH protein expression level |
| B1 | directly affected the TH protein expression level |
| B2 | directly affected the TH protein expression level |

tested on: human MSCs; experiment: Cell death in culture on supplementation of antioxidants; type: cell-based; details: antioxidant supplementation of differentiation medium; data not shown
Procedure: as §1

| Molecule | cell death in the culture |
| --- | --- |
| COc1ccc(O)c(C(C)(C)C)c1 [BHA, butylated hydroxyanisole, reference compound] | higher levels of cell death |
| CC(=O)N[C@@H](CS)C(=O)O [NAC, N-acetylcysteine, reference compound] | higher levels of cell death |
